Data set [1] relates to CT26 mouse colon cancer cell subcutaneously transplanted tumor. Nature of the data set: Growth inhibition of CT26 mouse colon cancer subcutaneously transplanted tumor model, alone and combined with PD-L1 monoclonal antibody. The format is in vivo, BALB/c mice. As to conditions: 21st day after administration, Example 2 60 mg/kg gavage once a day, Anti-PD-L1 200 μg each i.p. once every 3 days, 4 times; for IR(%), tumor inhibition percentage: by tumor weight. On the procedure:
The anti-tumor effect of the combination of the compound of Example 2 and PD-L1 monoclonal antibody in CT26 mouse colon cancer cell subcutaneously transplanted tumor model was evaluated.
An appropriate amount of the compound of Example 2 was weighed into a centrifuge tube, and 5% NMP 95% PEG400 was added. The mixture was vortexed to a fully soluble solution with a concentration of 6 mg/mL, which was prepared before immediate use.
Recombinant anti-PD-L1 whole mouse monoclonal antibody (InVivoMAb anti-mouse PD-L1 (B7-H1), purchased from Bioxcell, Clone 10F.9G2, catalog number: BE0101, batch number: 720619F1) was diluted with PBS so that the concentration was 1 mg/mL, which was prepared before immediate use.
BALB/c mice, female, 7-8 weeks (the age of mice at the time of tumor cell inoculation), weight of 18.4-19.1 g, 9 mice in each group, purchased from Zhejiang Weitong Lihua Laboratory Animal Technology Co., Ltd., license number: SOCK (Zhejiang) 2019-0001.
CT26 mouse colon cancer cells were cultured in RPMI-1640 culture medium containing 10% fetal bovine serum, 100 U/mL penicillin and 100 μg/mL streptomycin. CT26 cells in the exponential growth phase were collected and resuspended in PBS to a suitable concentration for subcutaneous tumor inoculation in mice.
Female BALB/c mice were subcutaneously inoculated with 2.5×10^5 CT26 cells on the back. When the average tumor volume was about 127 mm^3, they were randomly grouped according to the size of the tumor. They were divided into 4 groups with each group of 9 animals, and the day of grouping was defined as day 0.
After tumor inoculation, routine monitoring included the effects of tumor growth and treatment on the normal behavior of animals. The specific content included the activity of the experimental animal, food and water consumption, weight gain or loss, abnormal conditions of eyes, coat and others. The tumor volume was weighed and measured twice a week. The administration period was 21 days. On the 21st day, the mice were weighed and the tumor volume was measured. The next day after the tumor volume was measured, the mice were sacrificed and tumor masses were taken and weighed. The tumor volume (TV), relative tumor volume (RTV), relative tumor growth rate (T/C), tumor inhibition percentage (IR) and relative tumor inhibition rate (TGI) were calculated, and statistical testing was performed. The calculation formulas were as follows:
(1) TV=1/2×a×b^2, where a and b represent the length and width of the tumor respectively;
(2) RTV=Vt/V0, where V0 is the tumor volume measured during administration in grouping (i.e. d0), and Vt is the tumor volume during each measurement;

The nature of data set [2]: Oral pharmacokinetics in SD rats. The format is in vivo. As to conditions: male, rat, plasma, Oral (5 mg/kg). Here is the method: Using SD rats as test animals, the rats were intragastrically administrated with the compound of the present invention. LC/MS/MS method was used to determine the drug concentration in the plasma at different times to study the pharmacokinetic characteristics of the compound of the present invention in rats.
An appropriate amount of the compound to be tested was weighed, and 0.5% sodium carboxymethylcellulose (containing 0.05% Tween80) was added. The mixture was vortexed, and sonicated so that the solid was ultrasonically dispersed uniformly to obtain a suspension. 100 μL×2 of the filtered preparation were aspirated, and placed in 1.5-mL EP tubes, stored at […]. The concentration of the preparation was 0.5 mg/mL.
Nine healthy adult male SD rats were fasted overnight and then intragastrically administered (dosage of administration was 5 mg/kg), and fed 4 hours after administration.
About 0.2 mL of blood was collected from the jugular vein at 0.083 hours, 0.25 hours, 0.5 hours, 1 hour, 2 hours, 4 hours, 8 hours, 12 hours, and 24 hours after administration, and heparin sodium was used for anticoagulation. The collected blood samples were placed on ice and centrifuged to separate the plasma (centrifugation conditions: 1500 g, 10 minutes). The collected plasma was stored at −40 to −20° C. before analysis. The LC-MS/MS method was used to determine the content of the test compound in the plasma of SD rats after intragastric administration of different compounds.

The target of the next data set is recombinant human PI3Kα (Homo sapiens (Human), UniProt P42336). Kind of data set: Inhibitory activity on PI3K kinase (ADP-Glo Kinase Assay). (In general: ADP-Glo turns the ADP formed in a reaction into a luminescent signal.)
Sequence of recombinant human PI3Kα (P42336 whole entry): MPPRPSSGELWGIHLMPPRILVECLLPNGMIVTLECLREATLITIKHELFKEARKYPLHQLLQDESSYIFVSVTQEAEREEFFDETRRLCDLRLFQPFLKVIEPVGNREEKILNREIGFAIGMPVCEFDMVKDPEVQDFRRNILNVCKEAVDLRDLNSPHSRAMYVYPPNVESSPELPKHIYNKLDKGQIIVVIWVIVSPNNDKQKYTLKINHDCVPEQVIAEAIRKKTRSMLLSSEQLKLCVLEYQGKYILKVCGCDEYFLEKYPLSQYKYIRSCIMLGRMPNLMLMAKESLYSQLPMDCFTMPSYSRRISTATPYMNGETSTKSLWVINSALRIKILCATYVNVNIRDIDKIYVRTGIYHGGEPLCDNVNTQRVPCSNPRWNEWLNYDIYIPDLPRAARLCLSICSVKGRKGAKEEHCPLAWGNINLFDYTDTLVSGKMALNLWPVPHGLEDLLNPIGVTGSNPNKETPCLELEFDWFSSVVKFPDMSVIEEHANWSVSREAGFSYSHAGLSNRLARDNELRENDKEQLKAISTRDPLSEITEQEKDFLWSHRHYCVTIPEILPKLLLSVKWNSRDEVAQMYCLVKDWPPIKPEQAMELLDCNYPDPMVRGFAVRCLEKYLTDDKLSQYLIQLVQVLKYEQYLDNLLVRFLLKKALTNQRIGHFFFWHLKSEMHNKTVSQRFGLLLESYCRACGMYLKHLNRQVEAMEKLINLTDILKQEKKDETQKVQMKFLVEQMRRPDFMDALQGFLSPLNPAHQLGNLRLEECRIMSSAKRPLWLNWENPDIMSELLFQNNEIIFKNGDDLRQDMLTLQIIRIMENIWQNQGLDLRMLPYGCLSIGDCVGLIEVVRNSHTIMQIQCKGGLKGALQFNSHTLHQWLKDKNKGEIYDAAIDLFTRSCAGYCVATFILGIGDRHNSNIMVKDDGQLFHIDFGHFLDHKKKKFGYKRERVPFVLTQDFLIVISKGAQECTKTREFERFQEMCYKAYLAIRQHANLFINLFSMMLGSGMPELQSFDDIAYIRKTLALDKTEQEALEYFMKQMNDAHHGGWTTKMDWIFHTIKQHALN
Sequence of recombinant human PI3Kα (P27986 whole entry partner): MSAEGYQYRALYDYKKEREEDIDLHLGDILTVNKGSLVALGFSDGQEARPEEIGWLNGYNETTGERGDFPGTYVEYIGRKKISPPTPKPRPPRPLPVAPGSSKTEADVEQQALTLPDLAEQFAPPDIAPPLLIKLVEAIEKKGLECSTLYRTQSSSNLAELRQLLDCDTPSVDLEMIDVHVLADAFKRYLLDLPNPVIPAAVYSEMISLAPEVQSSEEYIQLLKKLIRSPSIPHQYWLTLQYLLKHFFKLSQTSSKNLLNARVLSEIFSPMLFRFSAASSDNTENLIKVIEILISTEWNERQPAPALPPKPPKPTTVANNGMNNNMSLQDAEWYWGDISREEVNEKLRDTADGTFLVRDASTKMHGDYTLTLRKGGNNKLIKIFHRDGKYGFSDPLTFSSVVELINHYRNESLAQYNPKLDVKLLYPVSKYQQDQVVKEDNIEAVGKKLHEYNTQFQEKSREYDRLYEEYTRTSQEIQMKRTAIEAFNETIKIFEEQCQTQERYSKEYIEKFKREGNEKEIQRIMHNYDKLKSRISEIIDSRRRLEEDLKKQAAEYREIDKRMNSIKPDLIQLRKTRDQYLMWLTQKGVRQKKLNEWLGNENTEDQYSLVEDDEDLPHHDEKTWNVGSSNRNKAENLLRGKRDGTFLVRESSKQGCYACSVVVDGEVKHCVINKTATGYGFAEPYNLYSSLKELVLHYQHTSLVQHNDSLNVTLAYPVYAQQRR
The nature of data set [3]: Oral pharmacokinetics in ICR mice. The format is in vivo. To be noted: male, mouse, plasma, Oral (5 mg/kg). Here is the method:
Using ICR mice as the test animals, the mice were intragastrically administrated with the compound of the present invention. LC/MS/MS method was used to determine the drug concentration in the plasma at different times to study the pharmacokinetic characteristics of the compound of the present invention in mice.
An appropriate amount of the compound to be tested was weighed, and 0.5% sodium carboxymethylcellulose (containing 0.05% Tween80) was added. The mixture was vortexed, and sonicated so that the solid was ultrasonically dispersed uniformly to obtain a suspension; 100 μL×2 of the preparation were aspirated, and placed in 1.5-mL EP tubes, stored at 2 to 8° C. The concentration of the preparation was 0.5 mg/mL.
Twenty-seven healthy adult ICR male mice were fasted overnight and then intragastrically administered (dosage of administration was 5 mg/kg), and fed 4 hours after administration.
At 0.083 hours, 0.25 hours, 0.5 hours, 1 hour, 2 hours, 4 hours, 8 hours, 12 hours, and 24 hours after administration, 80 μL of blood was collected from the orbital vein. About 0.08 mL of blood was collected, and placed in EDTA-K2 anticoagulation tube. […] The collected plasma was stored at −40 to −20° C. before analysis. The […] method was used to determine the content of the test compound in the plasma of ICR mice after intragastric administration of different compounds.

The mark [4] stands for this setting: read-out: Area under the curve AUC0-∞.
Setting [5] is: read-out: Plasma concentration Cmax.

pIC50: −log10 of the molar value.

Description for recombinant human PI3Kα: The following method is used to determine the degree of inhibition of recombinant human PI3Kα, PI3Kβ, PI3Kγ and PI3Kδ kinase activity by the compounds of the present invention under in vitro conditions. Promega's ADP-Glo Kinase Assay Kit (Cat. No. V9102) was used in this method. The above kit was a luminescence kinase detection kit, which was used to detect the ADP content produced by the kinase reaction. The ADP content was positively correlated with the kinase activity. By measuring the ADP content, the inhibition of the compound on the activity of PI3Kα, PI3Kβ, PI3Kγ and PI3Kδ kinases was reflected. […] Recombinant human PI3Kα, PI3Kγ, and PI3Kδ were purchased from Invitrogen, and PI3Kβ was purchased from Promega (category numbers were PI3Kα: PV4788; PI3Kβ: V1751; PI3Kγ: PV4786 and PI3Kδ: PV6451 separately).

`C[C@H](NC(=O)c1c(N)nn2cccnc12)c1nc2cccc(C#Cc3cnn(C4CC4)c3)c2c(=O)n1-c1ccccc1` [Example 2, (S)-2-amino-N-(1-(5-((1-cyclopropyl-1H-pyrazol-4-yl)ethynyl)-4-oxo-3-phenyl-3,4-dihydroquinazolin-2-yl)ethyl)pyrazolo[1,5-a]pyrimidine-3-carboxamide]: the “RTV (x ± S), relative tumor volume” value in data set [1] is reported as 5.47 ± 1.05. In addition, the “TGI (%), relative tumor inhibition rate” value in data set [1] is recorded as 51.2%. The “Tumor weight (g) (x ± S)” value in data set [1] stood at 0.5942 ± 0.1730 g. Moreover, the “TV (x ± S), tumor volume” value in data set [1] (in mm³ (unit assumed)) is on record as 723.47 ± 159.50. In addition, the “IR(%), tumor inhibition percentage” value in data set [1] (listed as Compound of Example 2) and in data set [1] (listed as compound of Example 2) was 52.1% throughout. For the same compound, the AUC(0-inf) is 11000 ng·h/mL in data set [2] (setting [4]) and 15100 ng·h/mL in data set [3] (setting [4]). In addition, the bioavailability (in general, dose-corrected exposure relative to a reference, in per cent) in data set [2] (read-out: Bioavailability F) came to 66%; in data set [3] (read-out: Bioavailability F), 60%. Besides, the half-life in data set [2] (read-out: Half-life period T1/2 (converted)) is 4.1 h; in data set [3] (read-out: Half-life period T½ (converted)) it was 3.4 h. For the same compound, the Cmax in data set [2] (setting [5]) is 1160 ng/mL; in data set [3] (setting [5]), 1730 ng/mL. Moreover, the pIC50 (as a rule, the IC50 on a negative log10 scale, so that one unit is a factor of ten) at recombinant human PI3Kα is 6.67.

(Values after US12447151B2, “Alkyne derivative, preparation method for same, and uses thereof” (ZHEJIANG HISUN PHARMACEUTICAL CO., LTD., priority 2019, dated 2025).)
